Data from patent publication US9028845B2, “Chimeric immunomodulatory compounds and methods of using the same-IV” (Dynavax Technologies Corporation, priority 2001, dated 2015).

Test system: human PBMCs
Assay: Human PBMC cytokine response assay (IFN-γ and IFN-α in cell-free medium by ELISA), with or without cPLGA;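 on IFN-α (pg/ml) mean: 20 µg/mL compound for 24 hours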;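 on IFN-γ (pg/ml) mean: 20 µg/mL compound for 24 hours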
Assay type: cell-based
Conditions: for IFN-α mean / IFN-γ mean: mean of donors; for immunomodulatory activity (IFN-γ / IFN-α secretion), in words: used alone (no cPLGA); for IFN-a / IFN-g / IFN-a mean / IFN-g mean: Table 25; for IFN-a mean / IFN-g mean: mean of donors 28250-28253
[1] = mean of donors 110, 112, 119, 120, Table 14
[2] = donor 28250, polynucleotides/spacers at amounts equivalent to the CIC, spacers alone 9 uM
[3] = donor 28066, 20 ug/ml, 24 h, + PLGA = premixed with 100 μg/ml cPLGA
[4] = donor 28067, 20 ug/ml, 24 h, + PLGA = premixed with 100 μg/ml cPLGA
[5] = donor 28068, 20 ug/ml, 24 h, + PLGA = premixed with 100 μg/ml cPLGA
[6] = mean of Donors 3-4, 20 μg/ml, 24 h
[7] = mean of donors 28065-28068, 20 ug/ml, 24 h, + PLGA = premixed with 100 μg/ml cPLGA

5′-AGATGAT-3′-HEG-5′-TCGTCGA-3′-HEG-5′-ACGTTCG-3′ [Compound C-59]
IFN-α (donor 110, Table 14): 2 pg/mL | IFN-γ (donor 110, Table 14): 256 pg/mL | IFN-α (donor 112, Table 14): 6 pg/mL | IFN-γ (donor 112, Table 14): 52 pg/mL | IFN-α (donor 119, Table 14): 2 pg/mL | IFN-γ (donor 119, Table 14): 28 pg/mL | IFN-α (donor 120, Table 14): 2 pg/mL | IFN-γ (donor 120, Table 14): 40 pg/mL | IFN-α (pg/ml) mean [1]: 3 pg/mL | IFN-γ (pg/ml) mean [1]: 94 pg/mL

5′-TCGTCGA-3′-HEG-5′-ACGTTCG-3′-HEG-5′-GGGGGG-3′ [Compound C-49]
IFN-α (Table 11, donor 28042): 30 pg/mL | IFN-γ (Table 11, donor 28042): 367 pg/mL | IFN-α (Table 11, donor 28043): 8 pg/mL | IFN-γ (Table 11, donor 28043): 433 pg/mL | IFN-α (Table 11, donor 28044): 100 pg/mL | IFN-γ (Table 11, donor 28044): 767 pg/mL | IFN-α (Table 11, donor 28045): 88 pg/mL | IFN-γ (Table 11, donor 28045): 353 pg/mL | IFN-α mean (Table 11): 57 pg/mL | IFN-γ mean (Table 11): 480 pg/mL

5′-TCGTCGA-3′-HEG-5′-AGATGAT-3′-HEG-5′-ACGTTCG-3′ [Compound C-56]
IFN-α (Table 13, donor 28156): 98 pg/mL | IFN-γ (Table 13, donor 28156): 1223 pg/mL | IFN-α (Table 13, donor 28157): 415 pg/mL | IFN-γ (Table 13, donor 28157): 543 pg/mL | IFN-α (Table 13, donor 28158): 57 pg/mL | IFN-γ (Table 13, donor 28158): 203 pg/mL | IFN-α (Table 13, donor 28159): 131 pg/mL | IFN-γ (Table 13, donor 28159): 563 pg/mL | IFN-α mean (Table 13): 175 pg/mL | IFN-γ mean (Table 13): 633 pg/mL | immunomodulatory activity (IFN-γ / IFN-α secretion), in words: most active CICs

5′-AGATGAT-3′ [Compound P-4, reference compound]
IFN-α (pg/ml) Donor 3 (Donor 3, 20 μg/ml, 24 h): 0 pg/mL | IFN-γ (pg/ml) Donor 3 (Donor 3, 20 μg/ml, 24 h): 0 pg/mL | IFN-α (pg/ml) Donor 4 (Donor 4, 20 μg/ml, 24 h): 58 pg/mL | IFN-γ (pg/ml) Donor 4 (Donor 4, 20 μg/ml, 24 h): 3 pg/mL | IFN-a (donor 28250): 16 pg/mL | IFN-g [2]: 72 pg/mL | IFN-a (donor 28251): 16 pg/mL | IFN-g (donor 28251): 1 pg/mL | IFN-a (donor 28252): 16 pg/mL | IFN-g (donor 28252): 43 pg/mL | IFN-a (donor 28253): 16 pg/mL | IFN-g (donor 28253): 1 pg/mL | IFN-a mean: 16 pg/mL | IFN-g mean: 29 pg/mL | IFN-γ (pg/ml) 28065 (donor 28065 (high background), 20 ug/ml, 24 h, + PLGA = premixed with 100 μg/ml cPLGA, 1000 = outside assay limits): 93 pg/mL | IFN-α (pg/ml) 28065 (donor 28065, 20 ug/ml, 24 h, + PLGA = premixed with 100 μg/ml cPLGA): 0 pg/mL | IFN-α (pg/ml) 28066 [3]: 0 pg/mL | IFN-γ (pg/ml) 28066 [3]: 1 pg/mL | IFN-α (pg/ml) 28067 [4]: 9 pg/mL | IFN-γ (pg/ml) 28067 [4]: 1 pg/mL | IFN-α (pg/ml) 28068 [5]: 0 pg/mL | IFN-γ (pg/ml) 28068 [5]: 1 pg/mL | IFN-α (pg/ml) mean [6]: 29 pg/mL | IFN-γ (pg/ml) mean [6]: 1 pg/mL | IFN-α (pg/ml) mean [7]: 2 pg/mL | IFN-γ (pg/ml) mean [7]: 24 pg/mL | immunomodulatory activity (IFN-γ / IFN-α secretion), in words: did not have immunomodulatory activity

5′-TTCGTTT-3′-HEG-5′-TTCGTTT-3′-HEG-5′-TTCGTTT-3′ [Compound C-46]
IFN-α (Table 10, donor 28042): 24 pg/mL | IFN-γ (Table 10, donor 28042): 399 pg/mL | IFN-α (Table 10, donor 28043): 73 pg/mL | IFN-γ (Table 10, donor 28043): 814 pg/mL | IFN-α (Table 10, donor 28044): 26 pg/mL | IFN-γ (Table 10, donor 28044): 480 pg/mL | IFN-α (Table 10, donor 28045): 3 pg/mL | IFN-γ (Table 10, donor 28045): 63 pg/mL | IFN-α mean (Table 10): 31 pg/mL | IFN-γ mean (Table 10): 439 pg/mL | IFN-α (donor 110, Table 14): 58 pg/mL | IFN-γ (donor 110, Table 14): 1224 pg/mL | IFN-α (donor 112, Table 14): 2 pg/mL | IFN-γ (donor 112, Table 14): 400 pg/mL | IFN-α (donor 119, Table 14): 208 pg/mL | IFN-γ (donor 119, Table 14): 68 pg/mL | IFN-α (donor 120, Table 14): 48 pg/mL | IFN-γ (donor 120, Table 14): 36 pg/mL | IFN-α (pg/ml) mean [1]: 79 pg/mL | IFN-γ (pg/ml) mean [1]: 432 pg/mL | immunomodulatory activity (IFN-γ / IFN-α secretion), in words: more active than other CG-containing CICs

5′-TCGACGT-3′ [Compound P-14, reference compound]
IFN-a (donor 28250): 16 pg/mL | IFN-g [2]: 10 pg/mL | IFN-a (donor 28251): 16 pg/mL | IFN-g (donor 28251): 34 pg/mL | IFN-a (donor 28252): 16 pg/mL | IFN-g (donor 28252): 11 pg/mL | IFN-a (donor 28253): 16 pg/mL | IFN-g (donor 28253): 10 pg/mL | IFN-a mean: 16 pg/mL | IFN-g mean: 16 pg/mL

5′-TGACTGTGAAGGTTAGAGATGA-3′ (SEQ ID NO: 136) (listed as DNA, chemistry not fully specified) [Compound P-8, reference compound]
IFN-α (Table 13, donor 28156): 16 pg/mL | IFN-γ (Table 13, donor 28156): 255 pg/mL | IFN-α (Table 13, donor 28157): 9 pg/mL | IFN-γ (Table 13, donor 28157): 20 pg/mL | IFN-α (Table 13, donor 28158): 24 pg/mL | IFN-γ (Table 13, donor 28158): 31 pg/mL | IFN-α (Table 13, donor 28159): 8 pg/mL | IFN-γ (Table 13, donor 28159): 31 pg/mL | IFN-α mean (Table 13): 14 pg/mL | IFN-γ mean (Table 13): 84 pg/mL
